Reference: patent publication US10040802B2, “Thienopyrazine inhibitors of IRAK4 activity” (MERCK SHARP & DOHME CORP., priority 2015, dated 2018)
Structures can show the parent of a compound that is named as a salt.

molecular target: GST tagged IRAK4 (Homo sapiens (Human), UniProt Q9NWZ3); assay: IRAK4 Kinase Assay (IMAP fluorescence polarization); format: biochemical; settings: 0.5 nM GST tagged IRAK4, 100 μM ATP, 30 minutes at 25° C.
Procedure, shortened: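 GST-tagged IRAK4 (0.5 nM) phosphorylates 100 nM fluorescent peptide with 100 μM ATP in 10 mM Tris pH 7.2, 1 mM MgCl2, 1 mM DTT, 0.01% Tween 20 for 30 min at 25 °C. Phosphorylation read as IMAP nanoparticle-binding fluorescence polarization after stop reagent.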

Sequence of GST tagged IRAK4 (Q9NWZ3 whole entry): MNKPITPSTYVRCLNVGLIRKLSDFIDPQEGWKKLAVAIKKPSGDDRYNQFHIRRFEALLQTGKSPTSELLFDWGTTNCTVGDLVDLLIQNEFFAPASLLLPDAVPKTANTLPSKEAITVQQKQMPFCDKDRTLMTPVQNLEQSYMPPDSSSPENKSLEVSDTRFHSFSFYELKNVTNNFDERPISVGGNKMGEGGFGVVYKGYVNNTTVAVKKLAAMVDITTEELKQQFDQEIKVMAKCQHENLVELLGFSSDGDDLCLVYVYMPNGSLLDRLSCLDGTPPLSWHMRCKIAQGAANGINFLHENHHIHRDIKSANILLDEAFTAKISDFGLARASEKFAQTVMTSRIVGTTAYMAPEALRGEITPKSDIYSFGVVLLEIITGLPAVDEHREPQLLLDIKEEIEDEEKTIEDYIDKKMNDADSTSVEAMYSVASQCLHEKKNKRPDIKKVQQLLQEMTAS

| IC50 | Compound |
| --- | --- |
| 4 nM | Cn1cc(NC(=O)c2csc3ncc(N4CC5CCC4CN5)nc23)c(C(F)F)n1 (stereo not drawn) [Example 11, 2-(2,5-diazabicyclo[2.2.2]oct-2-yl)-N-[3-(difluoromethyl)-1-methyl-1H-pyrazol-4-yl]thieno[2,3-b] pyrazine-7-carboxamide] |
| 1590 nM | O=C(Nc1ccsc1C(F)(F)F)c1csc2ncc(N3CCCNCC3)nc12 [Example 73, 2-(1,4-diazepan-1-yl)-N-[2-(trifluoromethyl)thiophen-3-yl] thieno[2,3-b] pyrazine-7-carboxamide trifluoroacetate] |
| 6400 nM | O=C(Nc1ccccc1C(F)(F)F)c1csc2ncc(N3CCCNCC3)nc12 [Example 90, 2-(1,4-diazepan-1-yl)-N-[2-(trifluoromethyl)phenyl]thieno[2,3-b]pyrazine-7-carboxamide trifluoroacetate] |
| 109 nM | Cn1cc(NC(=O)c2csc3ncc(N4CC5CCC4CN5)nc23)c(C(F)(F)F)n1 (stereo not drawn) [Example 7, 2-(2,5-diazabicyclo[2.2.2]oct-2-yl)-N-[1-methyl-3-(trifluoromethyl)-1H-pyrazol-4-yl] thieno[2,3-b] pyrazine-7-carboxamide] |
| 292 nM | N#Cc1ccccc1NC(=O)c1csc2ncc(N3CCNCC3)nc12 [Example 86, N-(2-cyanophenyl)-2-piperazin-1-yl-thieno[2,3-b]-pyrazine-7-carboxamide trifluoroacetate] |
| 151 nM | O=C(Nc1cscc1Cl)c1csc2ncc(N3CCCNCC3)nc12 [Example 107, N-(4-chlorothiophen-3-yl)-2-(1,4-diazepan-1-yl)-thieno[2,3-b]-pyrazine-7-carboxamide trifluoroacetate] |
| 645 nM | N[C@@H]1[C@H](Nc2cnc3scc(C(=O)Nc4cscc4Cl)c3n2)CCCC1(F)F [Example 111, 2-{[(1R,2R)-2-amino-3,3-difluorocyclohexyl]-amino}-N-(4-chlorothiophen-3-yl)thieno[2,3-b]-pyrazine-7-carboxamide trifluoroacetate] |
| 285 nM | O=C(Nc1cscc1C(F)F)c1csc2ncc(N3C[C@@H]4CC[C@H]3CN4)nc12 (single isomer, unassigned) [Example 58, 2-[(1S,4S)- or (1R,4R)-2,5-diazabicyclo [2.2.2]oct-2-yl]-N-[4-(difluoromethyl)thiophen-3-yl] thieno[2,3-b] pyrazine-7-carboxamide trifluoroacetate] |
| 26 nM | Cn1cc(NC(=O)c2csc3ncc(N4CCCNCC4)nc23)c(C#N)n1 [Example 28, N-(3-cyano-1-methyl-1H-pyrazol-4-yl)-2-(1,4-diazepan-1-yl)thieno[2,3-b] pyrazine-7-carboxamide trifluoroacetate] |
| 107 nM | Cn1cc(NC(=O)c2csc3ncc(N[C@@H]4CCCC(F)(F)[C@@H]4N)nc23)c(Br)n1 [Example 29, 2-{[(1R,2R)-2-amino-3,3-difluorocyclohexyl]amino}-N-(3-(bromo-1-methyl-1H-pyrazol-4-yl)thieno[2,3-b]pyrazine-7-carboxamide trifluoroacetate] |
| 274 nM | O=C(Nc1ccsc1Cl)c1csc2ncc(N3C[C@H]4CC[C@@H]3CN4)nc12 (single isomer, unassigned) [Example 62, N-(2-chlorothiophen-3-yl)-2-[(1S,4S)- or (1R,4R)-2,5-diazabicylo[2.2.2]oct-2-yl]thieno[2,3-b] pyrazine-7-carboxamide trifluoroacetate] |
| 46 nM | Cn1cc(NC(=O)c2csc3ncc(N4C[C@@H]5CC[C@H]4CN5)nc23)c(C#N)n1 (single isomer, unassigned) [Example 26, N-(3-cyano-1-methyl-1H-pyrazol-4-yl)-2-[(1S,4S)- or (1R,4R)-2,5-diazabicyclo[2.2.2]oct-2-yl]thieno[2,3-b] pyrazine-7-carboxamide trifluoroacetate] |
| 4 nM | Cn1cc(NC(=O)c2csc3ncc(NC4CCCCNC4)nc23)c(C(F)(F)F)n1 (stereo not drawn) [Example 15, 2-(azepan-3-ylamino)-N-[1-methyl-3 (trifluoromethyl)-1H-pyrazol-4-yl]thieno[2,3-b] pyrazine-7-carboxamide trifluoroacetate] |
| 767 nM | O=C(Nc1ccsc1Br)c1csc2ncc(N3C[C@H]4CC[C@@H]3CN4)nc12 (single isomer, unassigned) [Example 64, N-(2-bromothiophen-3-yl)-2-[(1S,4S)- or (1R,4R)-2,5-diazabicylo[2.2.2]oct-2-yl]thieno[2,3-b] pyrazine-7-carboxamide trifluoroacetate] |
| 422 nM | N#Cc1sccc1NC(=O)c1csc2ncc(N3CCCNCC3)nc12 [Example 72, N-(2-cyanothiophen-3-yl)-2-(1,4-diazepan-1-yl)thieno[2,3-b] pyrazine-7-carboxamide trifluoroacetate] |
| 324 nM | O=C(Nc1ccsc1Br)c1csc2ncc(N3C[C@@H]4CC[C@H]3CN4)nc12 (single isomer, unassigned) [Example 63, N-(2-bromothiophen-3-yl)-2-[(1S,4S)- or (1R,4R)-2,5-diazabicylo[2.2.2]oct-2-yl]thieno[2,3-b] pyrazine-7-carboxamide trifluoroacetate] |
| 100 nM | Cn1cc(NC(=O)c2csc3ncc(N[C@@H]4CCCC[C@@H]4O)nc23)c(C(F)(F)F)n1 [Example 3, 2-{[(1R,2S)-2-hydroxycyclohexyl]amino}-N-[1-methyl-3-(trifluoromethyl)-1H-pyrazol-4-yl] thieno[2,3-b] pyrazine-7-carboxamide trifluoroacetate] |
| 9 nM | N#Cc1ccccc1NC(=O)c1csc2ncc(N[C@@H]3CCCCNC3)nc12 (single isomer, unassigned) [Example 94, 2-[(3S)- or (3R)-azepan-3-ylamino]-N-(2-cyanophenyl)-thieno[2,3-b]-pyrazine-7-carboxamide trifluoroacetate] |
| 5 nM | Cn1cc(NC(=O)c2csc3ncc(N4CCCNCC4)nc23)c(C(F)F)n1 [Example 14, 2-(1,4-diazepan-1-yl)-N-[3-(difluoromethyl)-1-methyl-1H-pyrazol-4-yl]thieno[2,3-b] pyrazine-7-carboxamide trifluoroacetate] |
| 689 nM | O=C(Nc1ccsc1Cl)c1csc2ncc(N3C[C@@H]4CC[C@H]3CN4)nc12 (single isomer, unassigned) [Example 61, N-(2-chlorothiophen-3-yl)-2-[(1S,4S)- or (1R,4R)-2,5-diazabicylo[2.2.2]oct-2-yl]thieno[2,3-b] pyrazine-7-carboxamide trifluoroacetate] |
| 812 nM | O=C(Nc1cscc1Br)c1csc2ncc(N3C[C@@H]4CC[C@H]3CN4)nc12 (single isomer, unassigned) [Example 46, N-(4-bromothiophen-3-yl)-2-[(1S,4S)- or (1R,4R)-2,5-diazabicyclo[2.2.2]oct-2-yl]thieno[2,3-b] pyrazine-7-carboxamide] |
| 173 nM | N#Cc1ccccc1NC(=O)c1csc2ncc(N3C[C@@H]4CC[C@H]3CN4)nc12 (single isomer, unassigned) [Example 97, N-(2-cyanophenyl)-2-[(1S,4S)- or (1R,4R)-2,5-diazabicyclo-[2.2.2]oct-2-yl]thieno[2,3-b]-pyrazine-7-carboxamide trifluoroacetate] |
| 220 nM | N#Cc1cscc1NC(=O)c1csc2ncc(N3C[C@H]4CC[C@@H]3CN4)nc12 (single isomer, unassigned) [Example 66, N-(4-cyanothiophen-3-yl)-2-[(1S,4S)- or (1R,4R)-2,5-diazabicylo[2.2.2]oct-2-yl]thieno[2,3-b] pyrazine-7-carboxamide formate] |
| 0.5 nM | N#Cc1ccccc1NC(=O)c1csc2ncc(N[C@@H]3CCCC[C@@H]3N)nc12 [Example 95, 2-{[(1R,2S)-2-aminocyclohexyl]-amino}-N-(2-cyanophenyl)-thieno[2,3-b]-pyrazine-7-carboxamide trifluoroacetate] |
